According to patent publication US20240246942A1, “KINASE INHIBITORS FOR THE TREATMENT OF NEURODEGENERATIVE DISEASES” (priority 2020, published 2024):

Experiments:
JNK3α1 = JNK3α1 (Homo sapiens, UniProt P53779); format: biochemical; conditions: mean of ≥2 experiments; read-out: Biochemical inhibition IC50 JNK3
Protocol: (§1) A 10-point titration of all compounds was carried out in 3-fold dilutions from 10 μM to 0.5 nM.

JNK2 = JNK2 (Homo sapiens, UniProt P45984); experiment: JNK2 homogeneous time-resolved fluorescence enzyme inhibition assay; format: biochemical; conditions: mean of ≥2 experiments; read-out: Biochemical inhibition IC50 JNK2
Protocol: as §1

[1] = test system: JNK3-dependent phosphorylation of APP at T668; experiment: JNK3 inhibition assay in rat primary neuron cultures (Western blot, anisomycin activated); format: cell-based; conditions: even at a concentration as low as 10 nM; FIGS. 5A-5C
Protocol: Both hippocampal and cortical neurons were isolated from E18 rat embryos and cultured in NbActive 1 medium that contains B27 (Brainbits, LLC) plus penicillin/streptomycin (Life Technologies). At the 7th day in culture, cells were treated with different concentrations of inhibitors diluted in DMSO and 80 ng/ml Anisomycin for 30 min to activate the endogenous JNK3. At the end of incubation time, whole cell lysates were prepared in RIPA buffer containing 50 mM Tris (pH 8.0), 150 mM NaCl, 2 mM EDTA, 1% NP-40, 0.5% deoxycholate supplemented with 10 mM Na pyrophosphate, 1 mM sodium orthovanadate, 25 mM NaF, 10 μg/ml leupeptin, 10 μg/ml aprotinin, 1 mM β-glycerophosphate, and 2 mM PMSF. The lysates were subjected to Western blotting to detect whether inhibitors block JNK3-dependent phosphorylation of APP at T668 and c-jun at S73. Phospho-APP^T668, phosphor-c-jun^S73, APP, and c-jun antibodies were from Cell Signaling Technology.

[2] = target: T1, panel of 374 wild-type kinases (Homo sapiens, UniProt Q9H792); experiment: biochemical; conditions: read-out: % Enzyme Activity (relative to DMSO controls), kinase PEAK1; 5 uM
T1 construct: purchased Reaction Biology Corporation

[3] = target: T2, panel of 374 wild-type kinases (Homo sapiens, UniProt Q86SG6); experiment: biochemical; conditions: read-out: % Enzyme Activity (relative to DMSO controls), NEK8; 5 uM
T2 construct: purchased Reaction Biology Corporation

[4] = Pharmacokinetics / brain exposure in mice; format: in vivo, C57Bl/6J mice
Protocol: Pharmacokinetics studies were conducted in C57Bl/6J mice. The compound was formulated in a generic formulation at 1 mg/mL (e.g. 10:40:4:46, DMSO:PEG 400: tween 80: PBS, v:v:v:v) or other specified formulations and dosed at 1 mg/kg intravenous into the femoral vein or 1-10 mg/kg by oral gavage, or […]. Blood was obtained at t=5 min, 15 min, 30 min, 1 hr, 2 hr, 4 hr, 6 hr, and 8 hr. Blood was collected by heart puncture into EDTA containing tubes and plasma was generated by standard centrifugation methods. Brains were collected following perfusion with ice-cold saline, and snap frozen in liquid N2. Both plasma and brains were stored at −80° C. until processing. All procedures and handling were according to standard operating procedures approved by […] at Scripps Florida and/or Ohio State University. In order to assess in vivo pharmacokinetic parameters an LC-MS/MS bioanalytical method was developed where 25 TI of plasma was treated with 125 TI of acetonitrile containing an internal standard in a Millipore Multscreen Slovinter 0.45 micron low binding PTFE hydrophilic filter plate (#MSRLN0450) and allowed to shake at room temperature for five minute. The plate was then centrifuged for 5 minutes at 4000 rpm in a tabletop centrifuge and the filtrate was collected in a polypropylene capture plate. The filtrate (10 TI) is injected using an Agilent 1200 HPLC equipped with a Thermo Betasil C18 HPLC column 5 T (50×2.1 mm) #70105-052130. Mobile Phase A was water with 0.1% formic acid. Mobile phase B was acetonitrile with 0.1% formic acid. […] An API Sciex 4000 equipped with a turbo ion spray source was used for all analytical measurement. MRM methods were developed in position ion mode. Peak areas of the analyte ion were measured against the peak areas of the internal standard. Data was fit using WinNonLin using an IV bolus model.

JNK1 = JNK1 (Homo sapiens, UniProt P45983); experiment: JNK1 homogeneous time-resolved fluorescence enzyme inhibition assay; format: biochemical; conditions: mean of ≥2 experiments; read-out: Biochemical inhibition IC50 JNK1
Protocol: as §1

[5] = target: T3, panel of 374 wild-type kinases (Homo sapiens, UniProt P53779); experiment: biochemical; conditions: read-out: % Enzyme Activity (relative to DMSO controls), JNK3; 10 uM
T3 construct: purchased Reaction Biology Corporation
T3 sequence (P53779 whole entry): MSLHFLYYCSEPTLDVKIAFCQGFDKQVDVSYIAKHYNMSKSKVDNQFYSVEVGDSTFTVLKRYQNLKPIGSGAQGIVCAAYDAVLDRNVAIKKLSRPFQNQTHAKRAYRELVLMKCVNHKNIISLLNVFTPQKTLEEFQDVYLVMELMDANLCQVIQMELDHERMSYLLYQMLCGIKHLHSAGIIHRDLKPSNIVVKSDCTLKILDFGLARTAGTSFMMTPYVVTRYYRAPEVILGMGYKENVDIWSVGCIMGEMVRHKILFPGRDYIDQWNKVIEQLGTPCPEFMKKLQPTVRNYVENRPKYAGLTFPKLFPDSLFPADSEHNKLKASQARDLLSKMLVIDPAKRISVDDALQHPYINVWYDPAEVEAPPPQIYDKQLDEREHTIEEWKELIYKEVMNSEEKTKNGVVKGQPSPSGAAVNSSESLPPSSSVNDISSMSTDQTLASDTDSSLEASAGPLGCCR

Chain of JNK2 (P45984 whole entry): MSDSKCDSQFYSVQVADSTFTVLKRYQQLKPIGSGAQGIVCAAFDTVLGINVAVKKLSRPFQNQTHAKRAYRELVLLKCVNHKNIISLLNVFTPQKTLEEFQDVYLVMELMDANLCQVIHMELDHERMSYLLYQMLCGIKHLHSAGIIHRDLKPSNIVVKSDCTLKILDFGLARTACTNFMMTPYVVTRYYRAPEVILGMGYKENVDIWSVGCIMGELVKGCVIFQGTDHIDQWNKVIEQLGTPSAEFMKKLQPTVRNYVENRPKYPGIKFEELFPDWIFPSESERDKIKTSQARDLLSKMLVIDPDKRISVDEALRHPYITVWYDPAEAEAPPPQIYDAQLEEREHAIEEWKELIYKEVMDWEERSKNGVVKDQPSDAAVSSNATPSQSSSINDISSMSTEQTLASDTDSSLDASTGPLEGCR
T2 sequence (Q86SG6 whole entry): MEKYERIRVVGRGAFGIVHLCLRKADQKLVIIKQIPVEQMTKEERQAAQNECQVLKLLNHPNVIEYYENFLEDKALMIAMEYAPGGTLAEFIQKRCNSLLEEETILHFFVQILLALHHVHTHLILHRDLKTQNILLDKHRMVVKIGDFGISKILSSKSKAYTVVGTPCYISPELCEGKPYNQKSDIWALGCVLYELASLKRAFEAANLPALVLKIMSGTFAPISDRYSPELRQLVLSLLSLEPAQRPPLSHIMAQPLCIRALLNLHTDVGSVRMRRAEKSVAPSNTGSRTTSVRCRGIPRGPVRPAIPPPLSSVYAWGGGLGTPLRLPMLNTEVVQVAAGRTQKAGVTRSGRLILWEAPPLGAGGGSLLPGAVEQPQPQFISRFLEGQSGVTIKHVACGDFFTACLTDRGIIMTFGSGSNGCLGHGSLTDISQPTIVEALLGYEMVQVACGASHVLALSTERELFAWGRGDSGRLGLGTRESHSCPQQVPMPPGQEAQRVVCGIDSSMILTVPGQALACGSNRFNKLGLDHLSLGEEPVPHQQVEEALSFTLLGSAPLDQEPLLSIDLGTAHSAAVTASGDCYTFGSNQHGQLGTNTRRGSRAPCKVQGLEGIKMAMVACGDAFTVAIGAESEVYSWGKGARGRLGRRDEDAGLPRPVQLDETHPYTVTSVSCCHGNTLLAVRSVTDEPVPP
Chain of JNK1 (P45983 whole entry): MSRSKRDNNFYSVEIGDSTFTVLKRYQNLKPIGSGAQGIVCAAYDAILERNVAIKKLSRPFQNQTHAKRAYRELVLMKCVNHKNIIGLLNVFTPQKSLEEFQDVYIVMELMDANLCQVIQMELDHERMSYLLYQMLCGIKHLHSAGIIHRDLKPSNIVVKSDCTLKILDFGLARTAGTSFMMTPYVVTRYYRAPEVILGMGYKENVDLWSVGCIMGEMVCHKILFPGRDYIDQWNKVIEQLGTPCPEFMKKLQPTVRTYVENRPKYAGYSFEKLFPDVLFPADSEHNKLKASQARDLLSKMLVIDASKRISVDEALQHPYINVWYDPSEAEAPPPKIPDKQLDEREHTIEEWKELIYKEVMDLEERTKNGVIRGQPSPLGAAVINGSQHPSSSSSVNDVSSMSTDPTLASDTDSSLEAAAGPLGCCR
Chain of JNK3α1 (P53779 1-422 isoform P53779-2): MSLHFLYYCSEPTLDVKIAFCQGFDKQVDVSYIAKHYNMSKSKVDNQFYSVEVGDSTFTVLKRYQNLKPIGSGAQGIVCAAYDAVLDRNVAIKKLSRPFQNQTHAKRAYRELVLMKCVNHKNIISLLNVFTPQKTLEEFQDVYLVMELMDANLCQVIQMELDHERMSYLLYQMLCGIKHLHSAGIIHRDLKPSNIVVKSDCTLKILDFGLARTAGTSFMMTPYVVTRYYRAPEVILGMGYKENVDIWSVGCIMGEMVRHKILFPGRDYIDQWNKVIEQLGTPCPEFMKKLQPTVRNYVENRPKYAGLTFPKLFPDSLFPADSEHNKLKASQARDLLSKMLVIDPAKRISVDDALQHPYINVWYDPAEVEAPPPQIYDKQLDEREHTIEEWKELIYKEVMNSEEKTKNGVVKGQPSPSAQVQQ
T1 sequence (Q9H792 whole entry): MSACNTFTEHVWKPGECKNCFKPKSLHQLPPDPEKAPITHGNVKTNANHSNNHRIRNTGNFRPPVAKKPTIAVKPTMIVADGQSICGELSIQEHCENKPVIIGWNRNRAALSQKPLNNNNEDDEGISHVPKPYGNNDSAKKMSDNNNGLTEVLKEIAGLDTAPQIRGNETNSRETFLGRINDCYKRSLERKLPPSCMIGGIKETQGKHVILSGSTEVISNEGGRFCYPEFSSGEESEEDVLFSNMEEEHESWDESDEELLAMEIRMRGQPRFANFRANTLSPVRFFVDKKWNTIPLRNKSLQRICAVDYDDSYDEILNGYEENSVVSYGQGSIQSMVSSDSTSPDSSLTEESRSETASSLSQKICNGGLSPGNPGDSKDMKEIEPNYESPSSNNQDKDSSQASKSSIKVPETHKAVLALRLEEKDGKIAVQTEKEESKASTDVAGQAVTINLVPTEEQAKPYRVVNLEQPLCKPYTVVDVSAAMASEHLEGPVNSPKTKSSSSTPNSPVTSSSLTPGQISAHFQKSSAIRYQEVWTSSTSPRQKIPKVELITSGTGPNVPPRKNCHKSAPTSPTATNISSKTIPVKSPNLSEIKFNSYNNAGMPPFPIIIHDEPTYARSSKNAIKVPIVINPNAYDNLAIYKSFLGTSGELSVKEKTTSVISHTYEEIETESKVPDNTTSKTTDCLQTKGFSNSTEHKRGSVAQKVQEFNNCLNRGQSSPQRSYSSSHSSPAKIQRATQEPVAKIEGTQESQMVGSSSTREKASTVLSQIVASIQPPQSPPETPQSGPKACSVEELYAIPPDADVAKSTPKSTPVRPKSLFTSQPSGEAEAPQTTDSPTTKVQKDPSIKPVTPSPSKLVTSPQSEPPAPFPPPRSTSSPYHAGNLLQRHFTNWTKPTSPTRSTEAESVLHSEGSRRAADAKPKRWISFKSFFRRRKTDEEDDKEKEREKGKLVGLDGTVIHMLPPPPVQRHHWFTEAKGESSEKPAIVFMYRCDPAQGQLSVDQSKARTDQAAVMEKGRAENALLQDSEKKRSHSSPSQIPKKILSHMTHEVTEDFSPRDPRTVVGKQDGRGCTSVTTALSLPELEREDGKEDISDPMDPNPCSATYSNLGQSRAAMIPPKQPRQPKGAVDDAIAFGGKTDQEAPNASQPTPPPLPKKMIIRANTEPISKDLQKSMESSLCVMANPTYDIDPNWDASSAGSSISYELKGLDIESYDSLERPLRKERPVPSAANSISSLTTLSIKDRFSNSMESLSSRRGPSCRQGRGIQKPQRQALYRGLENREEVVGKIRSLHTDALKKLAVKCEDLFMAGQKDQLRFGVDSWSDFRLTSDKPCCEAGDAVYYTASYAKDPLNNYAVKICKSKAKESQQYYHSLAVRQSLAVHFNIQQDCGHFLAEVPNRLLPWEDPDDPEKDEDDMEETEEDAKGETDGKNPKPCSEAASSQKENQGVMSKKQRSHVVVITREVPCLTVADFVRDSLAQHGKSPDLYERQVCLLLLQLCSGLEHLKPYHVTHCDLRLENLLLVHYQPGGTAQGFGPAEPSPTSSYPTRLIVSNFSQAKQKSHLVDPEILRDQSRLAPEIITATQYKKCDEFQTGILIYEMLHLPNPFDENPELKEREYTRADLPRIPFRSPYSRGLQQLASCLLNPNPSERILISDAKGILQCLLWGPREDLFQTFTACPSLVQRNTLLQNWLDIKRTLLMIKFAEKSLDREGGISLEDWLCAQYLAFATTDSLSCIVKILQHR

Compound | IC50 (JNK3α1) [nM] | IC50 (JNK2) [nM] | inhibition of phosphorylation of residue T668 of APP [1] | remaining activity at 5 µM [2] [%] | remaining activity at 5 µM [3] [%] | brain penetration capability ([4]; po dosing) | oral bioavailability ([4]; po dosing) | Brain Concentration ([4]; po, 10 mg/kg) [nM] | Plasma Concentration ([4]; po, 10 mg/kg) [nM] | IC50 (JNK1) [nM] | remaining activity at 10 µM [5] [%]
O=C(Nc1cnn(-c2csc(C(=O)NC3COC3)c2)c1)Nc1ccccc1Cl [Compound 17, 4-(4-(3-(2-chlorophenyl)ureido)-1H-pyrazol-1-yl)-N-(oxetan-3-yl)thiophene-2-carboxamide] | 35 | 1360 | significantly inhibited | 91.4 | 107 | brain penetrant | has oral bioavailability | 1080 | 960 | 5900 | –
Cc1sc(C(=O)NC2COC2)cc1-n1cc(NC(=O)Nc2c(F)cccc2Cl)cn1 [Compound 27, 4-(4-(3-(2-chloro-6-fluorophenyl)ureido)-1H-pyrazol-1-yl)-5-methyl-N-(oxetan-3-yl)thiophene-2-carboxamide] | – | – | – | – | – | – | – | – | – | – | 10.5
